Assay results published in patent US20190255086A1, “Compositions and Methods for Treating an Infection” (CMPD Licensing, LLC, priority 2015, published 2019).

Key:
Shigella dysenteriae = experiment: Expected efficacy of anti-bacterial agents against various bacteria (Tables 5 and 6); conditions: Gram: neg
[1] = test system: Viridans group streptococci; experiment: as above; conditions: Gram: pos
Acinetobacter baumannii = experiment: as above; conditions: Gram: neg
Moraxella catarrhalis = experiment: as above; conditions: Gram: neg
Pseudomonas fluorescens = experiment: as above; conditions: Gram: neg
Enterococcus faecium = experiment: as above; conditions: Gram: pos
Bacteroides fragilis = experiment: as above; conditions: Gram: anaer
Proteus vulgaris = experiment: as above; conditions: Gram: neg
[2] = test system: Staphylococcus aureus (MSSA); experiment: as above; conditions: Gram: pos
Vibrio cholerae = experiment: as above; conditions: Gram: neg
Corynebacterium jeikeium = experiment: as above; conditions: Gram: pos
Streptococcus agalactiae = experiment: as above; conditions: Gram: pos
Neisseria gonorrhoeae = experiment: as above; conditions: Gram: neg
Pseudomonas aeruginosa = experiment: as above; conditions: Gram: neg
[3] = test system: Acinetobacter calcoaceticus; experiment: as above; conditions: Gram: neg
Citrobacter diversus = experiment: as above; conditions: Gram: neg
Enterobacter cloacae = experiment: as above; conditions: Gram: neg
Diphtheroids = experiment: as above; conditions: Gram: pos
Citrobacter freundii = experiment: as above; conditions: Gram: neg
Streptococcus pyogenes = experiment: as above; conditions: Gram: pos
Enterococcus faecalis = experiment: as above; conditions: Gram: pos
Proteus mirabilis = experiment: as above; conditions: Gram: neg
Enterobacter aerogenes = experiment: as above; conditions: Gram: neg
[4] = test system: Staphylococcus epidermidis; experiment: as above; conditions: Gram: pos
Shigella flexneri = experiment: as above; conditions: Gram: neg
Haemophilus influenzae = experiment: as above; conditions: Gram: neg
Yersinia pestis = conditions: expected efficacy; Yersinia pestis; Gram: neg
Escherichia coli = experiment: Expected efficacy of anti-bacterial agents against various bacteria (Tables 5 and 6); conditions: Gram: neg
Bordetella pertussis = experiment: as above; conditions: Gram: neg
[5] = test system: Klebsiella (Calymmatobacterium) granulomatis; experiment: as above; conditions: Gram: neg
Campylobacter jejuni = experiment: as above; conditions: Gram: neg
Klebsiella pneumoniae = experiment: as above; conditions: Gram: neg
Chlamydia trachomatis = experiment: as above; conditions: Gram: n/a
Enterobacter sakazakii = experiment: as above; conditions: Gram: neg
Klebsiella oxytoca = experiment: as above; conditions: Gram: neg
Haemophilus ducreyi = experiment: as above; conditions: Gram: neg
[6] = test system: Corynebacterium urealyticum; experiment: as above; conditions: Gram: pos
Serratia marcescens = experiment: as above; conditions: Gram: neg
Legionella pneumophila = conditions: expected efficacy; Legionella pneumophila; Gram: neg
Acinetobacter lwoffii = experiment: Expected efficacy of anti-bacterial agents against various bacteria (Tables 5 and 6); conditions: Gram: neg
Chlamydia psittaci = conditions: expected efficacy; Chlamydia psittaci; Gram: n/a
Chlamydia pneumoniae = experiment: Expected efficacy of anti-bacterial agents against various bacteria (Tables 5 and 6); conditions: Gram: n/a
Shigella boydii = experiment: as above; conditions: Gram: neg
[7] = test system: Methicillin resistant staph aureus (MRSA); experiment: as above; conditions: Gram: pos
Clostridium perfringens = conditions: expected efficacy; Clostridium perfringens; Gram: anaer
Streptococcus pneumoniae = experiment: Expected efficacy of anti-bacterial agents against various bacteria (Tables 5 and 6); conditions: Gram: pos
Mycoplasma pneumoniae = experiment: as above; conditions: Gram: n/a
Neisseria meningitidis = experiment: as above; conditions: Gram: neg
Peptostreptococcus = experiment: as above; conditions: Gram: pos
Shigella sonnei = experiment: as above; conditions: Gram: neg
Clostridium difficile = experiment: as above; conditions: Gram: anaer
[8] = test system: Haemophilus parainfluenzae; experiment: as above; conditions: Gram: neg
Providencia stuartii = experiment: as above; conditions: Gram: neg
Brucella species = conditions: expected efficacy; Brucella species; Gram: neg
Providencia rettgeri = experiment: Expected efficacy of anti-bacterial agents against various bacteria (Tables 5 and 6); conditions: Gram: neg

Measured: Efficacy of various antibiotic agents

NC[C@H]1O[C@H](O[C@H]2[C@H](O)[C@@H](O[C@H]3O[C@H](CO)[C@@H](O)[C@H](N)[C@H]3O)[C@H](N)C[C@@H]2N)[C@H](N)C[C@@H]1O [Tobramycin]
yes: Shigella dysenteriae | Moraxella catarrhalis | Pseudomonas fluorescens | Proteus vulgaris | Pseudomonas aeruginosa | Citrobacter diversus | Enterobacter cloacae | Citrobacter freundii | Proteus mirabilis | Enterobacter aerogenes | Shigella flexneri | Haemophilus influenzae | Yersinia pestis | Escherichia coli | [5] | Campylobacter jejuni | Klebsiella pneumoniae | Enterobacter sakazakii | Klebsiella oxytoca | Haemophilus ducreyi | Serratia marcescens | Shigella boydii | Shigella sonnei
not listed: [8] | Providencia stuartii | Brucella species | Providencia rettgeri
no: all other assays above

Colistimethate
yes: Pseudomonas fluorescens | Pseudomonas aeruginosa | Enterobacter cloacae | Enterobacter aerogenes | Escherichia coli | [5] | Klebsiella pneumoniae | Enterobacter sakazakii | Klebsiella oxytoca
not listed: Shigella dysenteriae | Acinetobacter baumannii | [3] | Citrobacter diversus | Citrobacter freundii | Shigella flexneri | Haemophilus influenzae | Yersinia pestis | Campylobacter jejuni | Haemophilus ducreyi | Acinetobacter lwoffii | Shigella boydii | Clostridium perfringens | Shigella sonnei
no: all other assays above
